Data taken from patent US20170304329A1 (THE UNIVERSITY OF KANSAS, priority 2014, published 2017).

Experiments:
T24 cells = experiment: Flow cytometry-based cell cycle analysis; design: species or system human
Method: Flow cytometry-based cell cycle analysis studies were conducted to determine the effect of ciclopirox (CPX) on cell cycle progression in T24 cells (data not shown). […] At 1×IC50 and 2×IC50 concentrations, CPX arrest cells at G0/G1 phase. Cells were treated with CPX and a flow cytometer based analysis was performed.

253JBV cells = experiment: Proliferation with predicted CPX urine concentration in 20% normal urine; type: cell-based, human; conditions: 3 days treatment, 50 uM-1.5625 uM CPX in 20% normal urine, 72 h
Method: We next determined the effect of CPX in normal urine on T24 and 253JBV cells upon everyday treatment for up to 72 h (3 days treatment). The idea behind this experiment is to see the effect of predicted concentration of CPX in human urine on bladder cancer cells as the patient's bladder will be exposed every day to the predicted concentration of CPX. Three sets of plates were used, one plate each for one day treatment, two days treatment and three days treatment of CPX (50-1.5625 uM). T24 and 253JBV cells were incubated with CPX in normal urine (20% normal urine in complete RPMI media). […] The effect of CPX was determined by hexosaminidase assay beyond the 12 hours of varying CPX concentration (25 h, 48 h, and 72 h). In two days treatment, the cells are exposed to 50 uM-1.5625 uM for two days and the effect was determined by hexosaminidase assay at 48 h and 72 h time points. In three days treatment, the cells are exposed to 50 uM-1.5625 uM for three days and the effect was determined by hexosaminidase assay at 72 h time point.
253JBV Cells were incubated with CPX in normal urine (20% normal urine in complete RPMI media). […] The effect of CPX was determined by hexosaminidase assay beyond the 12 hours of varying CPX concentration (25 h, 48 h, and 72 h). […]

[1] = tested on: Notch1 signaling and γ-secretase complex proteins in T24 cells; experiment: Western blot of Notch signaling pathway proteins; type: cell-based, human; conditions: bladder cancer cell lines (T24)
Method: Western blot studies were performed to detect the effect of CPX on the expression of proteins involved in Notch signaling pathway. Cell lysates were subjected to polyacrylamide gel electrophoresis and blotted onto Immobilon polyvinylidene difluoride membranes (Millipore, Bedford, Mass., USA). Antibodies were purchased from Cell Signaling Technology (Beverly, Mass., USA), Abcam Inc. (Cambridge, Mass., USA) and Santa Cruz Biotechnology Inc. (Santa Cruz, Calif., USA) and specific proteins were detected by the enhanced chemiluminescence system (GE Healthcare, Piscataway, N.J., USA).

[2] = tested on: T24 cells transfected with Notch-1 intracellular domain (NICD); experiment: Ectopic NICD expression and cell proliferation; type: cell-based, human; conditions: CPX 4 μM
Method: We determined whether ectopic expression of NICD reversed ciclopirox (CPX) mediated inhibition of cell proliferation. For this study, T24 Cells were transfected with plasmid EF.hICN1.CMV.GFP encoding the Notch-1 intracellular domain (NICD) or the empty vector EF.v-CMV.GFP (Addgene Inc.) and subsequently treated with CPX (4 μM). Cell proliferation was detected using hexoaminidase assay.

[3] = tested on: Notch, Wnt and Hedgehog signaling pathways in T24 cells; experiment: RT-PCR array of signal transduction pathways; type: cell-based, human
Method: We performed an RT-PCR array analyses as a preliminary study to identify the pathways affected by ciclopirox (CPX). Expression analysis was performed using RT2 Profiler™ PCR Arrays (SA Biosciences, Frederick, Md., USA) per the manufacturer's instructions. The Human signal transduction pathway finder polymerase chain reaction (PCR) array was used (cat. no. PAHS-014ZA). Briefly, Total RNA isolated from T24 cells using TRIZOL reagent was reverse transcribed with Superscript II reverse transcriptase in the presence of random hexanucleotide primers (all from Invitrogen, Carlsbad, Calif.). Complementary DNA (2 μg) was mixed with 1,275 μL RT2 SYBR Green qPCR Master Mix (PA-010; SA Biosciences) to make up a total volume of 2,550 μL. Each well received 25 μL of this mix. qPCR was performed on an Bio-Rad CFX machine following detection protocols recommended by SA Biosciences. Changes in mRNA expression were expressed as fold change relative to control.

T24 bladder cancer cells = experiment: Clonogenicity assay; type: cell-based, human; conditions: 48 h treatment, then 10 days
Method: (§1) We next determined the long-term effect of ciclopirox (CPX) on bladder cancer cells using the clonogenicity assay. For this assay, 6-well plates were seeded with 500 viable cells and were allowed to grow for overnight. The cells were then incubated in the presence or absence of various concentrations (1 and 5 μM) of CPX for 48 h. The CPX containing medium was then removed, and the cells were washed in PBS and incubated for an additional 10 days in complete medium. Each treatment was done in triplicate. The colonies obtained were washed with PBS and fixed in 10% formalin for 10 min at room temperature and then washed with PBS followed by staining with crystal violet. The colonies were compared to untreated cells.
(§2) The fresh medium was replaced and allowed to grow for 10 days. The colonies were stained with crystal violet and compared to untreated cells.

[4] = tested on: 253-JBV bladder cancer cells; experiment: Clonogenicity assay; type: cell-based, human; conditions: 48 h treatment, then 10 days
Method: as §1, §2

In the case of `Cc1cc(C2CCCCC2)n(O)c(=O)c1` [CPX, 6-cyclohexyl-1-hydroxy-4-methylpyridin-2(1H)-one], the cell cycle progression (T24 cells) is reported as “induces S-phase cell cycle arrest”, the “maximum inhibition of proliferation” value (253JBV cells) is reported as 35% and the “expression of Notch pathway proteins” value [1] is reported as “significantly inhibited the expression of the γ-secretase complex proteins”. For the same molecule, the “rescue of proliferation by NICD” value [2] was “Ectopic expression of NICD reversed CPX mediated inhibition of cell proliferation”, the “mRNA expression of CSC signaling pathway genes” value [3] was “significantly reduced the mRNA expression of Notch and its downstream signaling proteins” and the colony formation (T24 bladder cancer cells) was “inhibited the number and size of colonies compared to control”. The colony formation [4] was “inhibited the number and size of colonies compared to control”.
